According to publication PMC11406361, “Several orphan solute carriers functionally identified as organic cation transporters: Substrates specificity compared with known cation transporters” (The Journal of Biological Chemistry, 2024):

Experiments:
SLC35E2A [1] = target: T1, SLC35E2A (Homo sapiens, UniProt P0CK97); details: ratio of Vmax over KM
SLC35G3 [2] = target: T2, SLC35G3 (Homo sapiens, UniProt Q8N808); assay: Uptake ratio screen, SLC35G3-overexpressing HEK293 over empty vector cells; format: cell-based; parameters: by amplifying the entire gene-of-interest within the HEK293 genome via a long-range PCR; details: 2.5 μM substrate, 2 min, HEK293
T2 sequence (Q8N808 whole entry): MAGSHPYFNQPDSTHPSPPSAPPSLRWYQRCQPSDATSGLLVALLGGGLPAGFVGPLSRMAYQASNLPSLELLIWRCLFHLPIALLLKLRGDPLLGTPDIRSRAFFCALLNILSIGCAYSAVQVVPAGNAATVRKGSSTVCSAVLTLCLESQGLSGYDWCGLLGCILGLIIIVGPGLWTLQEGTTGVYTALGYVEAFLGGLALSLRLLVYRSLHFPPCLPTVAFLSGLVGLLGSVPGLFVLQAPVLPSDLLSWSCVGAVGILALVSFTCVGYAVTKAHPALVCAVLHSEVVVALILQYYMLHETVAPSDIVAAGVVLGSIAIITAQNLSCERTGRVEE

SLC35F5 = target: T3, SLC35F5 (Homo sapiens, UniProt Q8WV83); assay: Uptake ratio screen, SLC35F5-overexpressing HEK293 over empty vector cells; format: cell-based; parameters: by amplifying the entire gene-of-interest within the HEK293 genome via a long-range PCR; details: 2.5 μM, 2 min
T3 sequence (Q8WV83 1-523): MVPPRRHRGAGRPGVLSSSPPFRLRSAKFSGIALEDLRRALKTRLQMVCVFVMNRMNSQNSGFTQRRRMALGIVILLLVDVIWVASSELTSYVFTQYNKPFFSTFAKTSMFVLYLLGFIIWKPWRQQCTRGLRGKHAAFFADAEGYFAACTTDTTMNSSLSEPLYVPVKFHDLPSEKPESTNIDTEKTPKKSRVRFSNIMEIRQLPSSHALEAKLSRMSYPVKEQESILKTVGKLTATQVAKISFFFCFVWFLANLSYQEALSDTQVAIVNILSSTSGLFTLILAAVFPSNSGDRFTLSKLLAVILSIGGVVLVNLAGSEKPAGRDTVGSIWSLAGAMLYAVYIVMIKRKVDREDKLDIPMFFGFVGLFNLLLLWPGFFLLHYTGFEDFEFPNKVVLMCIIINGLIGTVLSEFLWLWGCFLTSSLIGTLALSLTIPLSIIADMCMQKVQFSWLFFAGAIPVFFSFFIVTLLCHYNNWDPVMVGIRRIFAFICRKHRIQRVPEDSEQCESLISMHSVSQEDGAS
Experimental: (§1) Typically discussed substrates of the proton organic-cation antiporter ([14]) are highlighted in dark green in Figure 1.
(§2) In preparation for transport experiments, 24-well plates were pre-coated with poly-D-lysine (Sigma-Aldrich) and 300,000 cells were plated per well and incubated for 48 h. Firstly, the 24-well plate was placed on a heating plate at 37 °C, and the cells were washed with 37 °C HBSS^+ buffer (Hank’s balanced salt solution supplemented with 10 mM Hepes and adjusted to pH 7.4; Thermo Fisher Scientific). The substance-of-interest, which was diluted in 37 °C HBSS^+ to a desired concentration, was added to the cells for exactly 2 min. […] The uptake was stopped with ice-cold HBSS^+, and the 24-well plate was removed from the heating plate. The cells were washed twice with the cold HBSS^+ before they were lysed for 15 min with 80% (v/v) acetonitrile containing the respective internal standard for mass spectrometry. For variations in seeded cell numbers between the cell lines, several wells were lysed in RIPA buffer and used for total protein quantification using a bicinchoninic assay ([74]) and bovine serum albumin as calibration.
(§3) The intracellular drug concentrations after transport experiments were analyzed by high-performance liquid chromatography coupled to tandem mass spectrometry analysis. The HPLC consisted of a Shimadzu Nexera HPLC System with a SIL-30AC autosampler, a LC-30AD pump, a CTO-20AC column oven, and a CBM-20A controller (Shimadzu). The reverse-phase chromatography of compounds was accomplished with a Brownlee SPP RP-Amide column with 4.6 × 100 mm inner dimensions, a particle size of 2.7 μm, and a preceding Phenomenex C-18 guard column. The mobile phase was composed of an organic additive with acetonitrile:methanol 6:1 (v/v) in total concentrations between 3% and 50% (v/v) and 0.1% (v/v) formic acid in the aqueous component of the eluent. During separation, the column oven was held at 40 °C and the mobile phase was maintained at a flow rate of 300 or 400 μl/min. After separation, the detection of substances was performed with an API 4000 tandem mass spectrometer (AB SCIEX, https://sciex.com/support/software-support/software-downloads), followed by quantification of results with the Analyst software (AB SCIEX, version 1.6.2). The composition of chromatographic conditions, as well as detailed mass spectrometric detection parameters, are listed in Table S5.
(§4) Transport-mediated net uptake was determined as fold-increase of transporter-overexpressing cells over empty vector–transfected control cells.

SLC35F4 = target: T4, SLC35F4 (Homo sapiens, UniProt A4IF30); assay: Uptake ratio screen, SLC35F4-overexpressing HEK293 over empty vector cells; format: cell-based; parameters: by amplifying the entire gene-of-interest within the HEK293 genome via a long-range PCR; details: 2.5 μM, 2 min
T4 sequence (A4IF30 1-521): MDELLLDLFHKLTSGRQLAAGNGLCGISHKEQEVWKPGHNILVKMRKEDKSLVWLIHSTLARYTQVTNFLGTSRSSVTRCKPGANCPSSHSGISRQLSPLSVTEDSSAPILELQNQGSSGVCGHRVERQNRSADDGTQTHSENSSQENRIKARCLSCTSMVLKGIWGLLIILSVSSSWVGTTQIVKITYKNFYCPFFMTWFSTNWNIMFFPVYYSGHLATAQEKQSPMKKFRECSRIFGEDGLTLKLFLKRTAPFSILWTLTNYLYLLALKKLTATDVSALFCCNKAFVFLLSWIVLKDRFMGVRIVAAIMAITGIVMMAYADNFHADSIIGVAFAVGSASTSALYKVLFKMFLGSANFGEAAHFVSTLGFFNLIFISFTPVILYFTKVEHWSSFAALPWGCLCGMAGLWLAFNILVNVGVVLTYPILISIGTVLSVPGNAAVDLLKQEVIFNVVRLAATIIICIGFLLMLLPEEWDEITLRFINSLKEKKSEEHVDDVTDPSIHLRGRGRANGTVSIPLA
Experimental: as §1, §2, §3, §4

SLC35F2 = target: T5, SLC35F2 (Homo sapiens, UniProt Q8IXU6); details: SLC35F2; ratio of Vmax over KM
T5 sequence (Q8IXU6 1-374): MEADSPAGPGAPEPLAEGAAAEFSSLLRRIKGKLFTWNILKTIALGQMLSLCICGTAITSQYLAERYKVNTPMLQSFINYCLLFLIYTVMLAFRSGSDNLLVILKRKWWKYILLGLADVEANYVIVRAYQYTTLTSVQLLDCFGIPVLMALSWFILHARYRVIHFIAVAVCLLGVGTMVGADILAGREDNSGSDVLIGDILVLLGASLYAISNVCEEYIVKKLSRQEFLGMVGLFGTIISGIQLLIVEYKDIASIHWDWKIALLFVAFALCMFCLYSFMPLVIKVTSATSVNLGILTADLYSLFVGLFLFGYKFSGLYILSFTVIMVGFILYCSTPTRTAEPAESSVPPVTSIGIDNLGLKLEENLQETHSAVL

SLC22A15 = target: T6, SLC22A15 (Homo sapiens, UniProt Q8IZD6); assay: Uptake ratio screen, SLC22A15-overexpressing HEK293 over empty vector cells; format: cell-based; details: 2.5 μM (nicotine 10 μM), 2 min
T6 construct: by amplifying the entire gene-of-interest within the HEK293 genome via a long-range PCR
T6 sequence (Q8IZD6 whole entry): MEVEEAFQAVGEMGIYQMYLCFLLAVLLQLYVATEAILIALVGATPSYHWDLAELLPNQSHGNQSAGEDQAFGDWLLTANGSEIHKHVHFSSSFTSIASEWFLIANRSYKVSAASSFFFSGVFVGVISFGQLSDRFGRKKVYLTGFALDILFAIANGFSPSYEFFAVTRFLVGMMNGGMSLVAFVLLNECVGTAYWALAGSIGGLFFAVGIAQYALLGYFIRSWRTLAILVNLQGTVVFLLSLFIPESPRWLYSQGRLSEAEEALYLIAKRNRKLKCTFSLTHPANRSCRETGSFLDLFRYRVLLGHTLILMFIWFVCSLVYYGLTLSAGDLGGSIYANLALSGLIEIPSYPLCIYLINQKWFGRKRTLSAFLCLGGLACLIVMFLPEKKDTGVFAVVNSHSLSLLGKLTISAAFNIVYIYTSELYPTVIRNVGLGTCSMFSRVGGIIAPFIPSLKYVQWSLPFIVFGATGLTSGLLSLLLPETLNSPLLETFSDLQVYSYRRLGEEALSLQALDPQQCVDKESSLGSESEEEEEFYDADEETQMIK
Experimental: as §1, §2, §3, §4

SLC35E2A [3] = target: T1, SLC35E2A; assay: Uptake ratio screen, SLC35E2A-overexpressing HEK293 over empty vector cells; format: cell-based; parameters: by amplifying the entire gene-of-interest within the HEK293 genome via a long-range PCR; details: 2.5 μM, 2 min
Experimental: as §1, §2
(§5) The intracellular drug concentrations after transport experiments were analyzed by high-performance liquid chromatography coupled to tandem mass spectrometry analysis. The HPLC consisted of a Shimadzu Nexera HPLC System with a SIL-30AC autosampler, a LC-30AD pump, a CTO-20AC column oven, and a CBM-20A controller (Shimadzu). The reverse-phase chromatography of compounds was accomplished with a Brownlee SPP RP-Amide column with 4.6 × 100 mm inner dimensions, a particle size of 2.7 μm, and a preceding Phenomenex C-18 guard column. […] After separation, the detection of substances was performed with an API 4000 tandem mass spectrometer (AB SCIEX, https://sciex.com/support/software-support/software-downloads), followed by quantification of results with the Analyst software (AB SCIEX, version 1.6.2). […]
as §4

SLC35G3 [4] = target: T2, SLC35G3; details: ratio of Vmax over KM
hCMEC/D3 cell line = assay: Antiport (exchange) of diphenhydramine and nalmefene in hCMEC/D3 cells; format: cell-based, human; details: hCMEC/D3 preloaded with DPH, within 2 min, unpublished data
SLC19A2 = target: T7, SLC19A2 (Homo sapiens, UniProt O60779); assay: Uptake ratio screen, SLC19A2-overexpressing HEK293 over empty vector cells; format: cell-based; details: 2.5 μM, 2 min
T7 construct: expressed in transfected cells
T7 sequence (O60779 1-497): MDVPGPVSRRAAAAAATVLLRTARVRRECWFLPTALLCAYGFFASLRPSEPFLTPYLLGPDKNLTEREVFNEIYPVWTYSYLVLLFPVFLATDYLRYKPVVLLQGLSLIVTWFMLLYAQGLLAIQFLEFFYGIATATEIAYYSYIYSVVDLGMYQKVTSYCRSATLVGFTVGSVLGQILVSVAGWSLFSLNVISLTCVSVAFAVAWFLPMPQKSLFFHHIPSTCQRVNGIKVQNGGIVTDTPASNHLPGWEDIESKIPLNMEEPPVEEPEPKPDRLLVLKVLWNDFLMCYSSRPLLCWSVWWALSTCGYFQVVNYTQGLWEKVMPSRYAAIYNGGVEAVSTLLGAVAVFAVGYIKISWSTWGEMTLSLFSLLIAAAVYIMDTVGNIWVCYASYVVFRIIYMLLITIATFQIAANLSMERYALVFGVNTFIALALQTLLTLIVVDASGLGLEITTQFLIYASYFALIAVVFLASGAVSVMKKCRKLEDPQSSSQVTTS
Experimental: as §1, §2, §5, §4

T1 sequence (P0CK97 whole entry): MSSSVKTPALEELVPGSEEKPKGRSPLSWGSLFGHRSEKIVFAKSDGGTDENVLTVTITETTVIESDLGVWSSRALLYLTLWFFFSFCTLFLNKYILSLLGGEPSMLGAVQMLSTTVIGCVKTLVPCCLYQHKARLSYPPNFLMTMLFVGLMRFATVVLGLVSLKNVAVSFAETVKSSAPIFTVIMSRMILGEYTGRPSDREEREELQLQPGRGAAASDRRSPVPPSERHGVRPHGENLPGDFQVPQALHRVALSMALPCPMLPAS

Compound | Clint (±SEM) (SLC35E2A [1]) | Uptake data for SLC35G3, mean value (fold-increase over empty vector control) (SLC35G3 [2]) | Uptake by SLC35F5 (in words) (SLC35F5) | Uptake by SLC35F4 (in words) (SLC35F4) | Clint (±SEM) (SLC35F2) | Uptake by SLC22A15 (in words) (SLC22A15) | Uptake by SLC35E2A (in words) (SLC35E2A [3]) | Clint (±SEM) (SLC35G3 [4]) | Share of substrates exchanged (antiport) (hCMEC/D3 cell line) | Uptake by SLC19A2 (in words) (SLC19A2)
COC(=O)[C@H]1[C@@H](OC(=O)c2ccccc2)C[C@@H]2CC[C@H]1N2C [Cocaine] | 4.14 (±1.59) μl × mg protein^-1 × min^-1 | 2.02 | highest uptake rates | enhanced cell uptake | 2.58 (±2.11) μl × mg protein^-1 × min^-1 | significantly increased the uptake | relatively high activity | 1.59 (±0.57) μl × mg protein^-1 × min^-1 | – | –
CN(C)CCOC(c1ccccc1)c1ccccc1 [Diphenhydramine] | – | – | – | – | – | – | – | – | approximately 60% | –
COc1ccc2c3c1O[C@H]1C(=O)CC[C@@]4(O)[C@@H](C2)N(C)CC[C@]314 [Oxycodone] | 3.44 (±1.49) μl × mg protein^-1 × min^-1 | 1.86 | – | – | – | significantly increased the uptake | relatively high activity | – | – | enhance cell uptake
